These results are taken from patent US20130296384A1, “N-SUBSTITUTED(6 HALOALKYLPYRIDIN 3 YL)ALKYL SULFOXIMINES AS A SEED TREATMENT TO CONTROL COLEOPTERAN INSECTS” (Dow AgroSciences LLC, priority 2012, published 2013).

Assay [1] deals with canola (Brassica napus). Nature of the assay: Canola seed treatment field test: canola plant vigor under natural flea beetle infestation. It is filed as in vivo. The note with it: 13 days after canola emergence. Here is the method:
(§1) The effectiveness of sulfoxaflor as a canola (Brassica napus) seed treatment to control feeding damage by cabbage flea beetle (Phyllotreta cruciferae) was evaluated against the commercial standard thiamethoxam (Helix Xtra). Canola seeds were sprayed with a range of insecticides, including Helix Xtra at a use rate of about 0.4 milligrams (mg) thiamethoxam ai/seed, spinosyn A and spinosyn D (spinosad) at a low use rate of about 0.2 mg ai/seed and a high use rate of about 0.6 mg ai/seed, spinetoram at a low use rate of about 0.2 mg ai/seed and a high use rate about 0.6 mg ai/seed, and sulfoxaflor at a low use rate of about 0.2 mg ai/seed and a high use rate about 0.6 mg ai/seed. Each treatment was replicated four (4) times. The canola seeds were planted and then exposed to a natural infestation of the cabbage flea beetles soon after emergence.
Canola plant vigor was evaluated at thirteen (13) days after the canola seed emerged from the ground described above. […] As depicted in FIG. 3, both the low use rate of sulfoxaflor and the high use rate of sulfoxaflor facilitated improved canola plant vigor as compared to the use of Helix Xtra.

The test system of assay [2] is canola (Brassica napus). Nature of the assay: Canola seed treatment field test: canola plant yield under natural flea beetle infestation. The assay is classed as in vivo. The note with it: 107 days after canola emergence. Here is the method:
as §1
Canola plant yield was evaluated at 107 days after the canola seed emerged from the ground described above. […] As depicted in FIG. 4, the low use rate of sulfoxaflor facilitated a canola plant yield similar to that facilitated by the use of Helix Xtra, and the high use rate of sulfoxaflor facilitated improved canola plant yield as compared to the use of Helix Xtra.

[3] abbreviates: high use rate about 0.6 mg ai/seed.
Setting [4] is: low use rate about 0.2 mg ai/seed.

Regarding `CC(c1ccc(C(F)(F)F)nc1)S(C)(=O)=NC#N` (stereo not shown) [sulfoxaflor], the canola plant vigor entry is recorded as “about 69%” with canola (Brassica napus) [1] (setting [3]) and “about 87%” in the assay on canola (Brassica napus) [1] (setting [4]). Also, the canola plant yield entry in the assay on canola (Brassica napus) [2] (setting [3]) was “about 4500 kg/ha”; in the assay on canola (Brassica napus) [2] (setting [4]), “about 4050 kilograms (Kg)/hectare (ha)”.
